# Assay results from article PMC7391767, “Molecular mechanisms underlying menthol binding and activation of TRPM8 ion channel” (Nature Communications, 2020).
# Several values for one entry are separate records, joined by “and”; a condition that tells them apart may be missing. Equal entries are not always repeated. Entries after “also recorded” stand apart in the source; their conditions may differ. Where two headings read alike, the source gives them in different places.
# Tests used:
# Format in all cases: cell-based
# TRPM8 L843A = biological target: T1, TRPM8 L843A (Mus musculus, UniProt Q8R4D5, L843A); experiment: whole-cell patch-clamp and thermodynamic mutant cycle analysis
# T1 construct: expressed in transfected cells; host or cells: HEK293T
# T1 sequence (Q8R4D5 whole entry L843A): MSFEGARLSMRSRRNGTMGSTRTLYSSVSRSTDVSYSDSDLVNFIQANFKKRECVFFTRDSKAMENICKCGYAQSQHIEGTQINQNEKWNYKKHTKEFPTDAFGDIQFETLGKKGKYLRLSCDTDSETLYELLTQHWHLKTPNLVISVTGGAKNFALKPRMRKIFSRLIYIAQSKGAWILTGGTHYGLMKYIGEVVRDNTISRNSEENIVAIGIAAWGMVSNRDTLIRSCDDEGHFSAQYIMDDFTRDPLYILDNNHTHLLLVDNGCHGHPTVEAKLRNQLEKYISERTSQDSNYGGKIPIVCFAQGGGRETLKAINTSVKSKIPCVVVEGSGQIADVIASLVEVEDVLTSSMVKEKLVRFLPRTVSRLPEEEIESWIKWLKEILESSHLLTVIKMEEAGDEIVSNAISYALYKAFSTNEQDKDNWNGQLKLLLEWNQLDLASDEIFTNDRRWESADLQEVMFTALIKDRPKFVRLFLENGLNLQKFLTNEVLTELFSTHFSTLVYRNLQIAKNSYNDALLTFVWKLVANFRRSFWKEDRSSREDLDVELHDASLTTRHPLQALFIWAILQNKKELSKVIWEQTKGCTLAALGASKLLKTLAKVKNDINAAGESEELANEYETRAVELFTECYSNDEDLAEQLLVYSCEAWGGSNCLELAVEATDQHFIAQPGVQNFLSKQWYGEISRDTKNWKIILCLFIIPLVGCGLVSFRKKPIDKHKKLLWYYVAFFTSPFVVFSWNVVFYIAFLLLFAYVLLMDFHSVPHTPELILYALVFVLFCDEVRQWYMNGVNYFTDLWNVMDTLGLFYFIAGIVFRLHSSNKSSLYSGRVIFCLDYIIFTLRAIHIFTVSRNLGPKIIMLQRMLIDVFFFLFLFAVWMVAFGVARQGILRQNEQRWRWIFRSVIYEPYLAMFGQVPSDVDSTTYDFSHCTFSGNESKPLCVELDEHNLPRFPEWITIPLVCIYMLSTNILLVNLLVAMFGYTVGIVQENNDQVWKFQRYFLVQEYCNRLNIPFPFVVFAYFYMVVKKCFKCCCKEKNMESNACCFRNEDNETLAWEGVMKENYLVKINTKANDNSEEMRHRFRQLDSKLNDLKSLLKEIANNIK
# Method: (§1) Murine TRPM8 was used in this study. Point mutations were made by Fast Mutagenesis Kit V2 (SBS Genetech). Primers used to generate point mutations are summarized in Supplementary Table 2. All mutations were confirmed by sequencing.
# (§2) HEK293T cells purchased from Kunming Cell Bank, Kunming Institute of Zoology, Chinese Academy of Sciences (ATCC, CRL-3216) were cultured in Dulbecco’s modified Eagle’s medium supplemented with 20 mM L-glutamine and 10% fetal bovine serum. Cells were transiently transfected with cDNA constructs by Lipofectamine 3000 (Life Technologies) following the manufacturer’s protocol. Patch-clamp recordings were performed 1–2 days after transfection.
# (§3) Patch-clamp recordings were performed with a HEKA EPC10 amplifier controlled by PatchMaster software (HEKA). Whole-cell recordings were performed at ±80 mV. Patch pipettes were prepared from borosilicate glass and fire-polished to resistance of ~4 MΩ. For whole-cell recording, serial resistance was compensated by 60%. For single-channel recordings, patch pipettes were fire-polished to a higher resistance of 6-to-10 MΩ and then recorded in the inside-out configuration. To maximize the chance of obtaining a patch with only one channel, single-channel recordings were performed about 8 h after transfection. A solution with 130 mM NaCl, 10 mM glucose, 0.2 mM EDTA, and 3 mM HEPES (pH 7.2) was used in both bath and pipette for either whole-cell or single-channel recordings. Membrane potential was clamped at +80 mV for single-channel recordings. Current was sampled at 10 kHz and filtered at 2.9 kHz. All recordings were performed at room temperature (22 °C) with the maximum variation of 1 °C.
# (§4) Ligands such as menthol and its analogs were perfused to membrane patch by a gravity-driven system (RSC-200, Bio-Logic). Bath and ligand solution were delivered through separate tubes to minimize the mixing of solutions. Patch pipette was placed in front of the perfusion tube outlet.
# (§5) Data from whole-cell recordings were analyzed in Igor Pro version 6.1 (WaveMatrix). EC50 values were derived from fitting a Hill equation to the concentration–response relationship. Changes in EC50 by point mutation may be caused by either perturbation of ligand bind or channel gating or both. To distinguish these possibilities, dissociation constant (Kd) for ligand binding was estimated assuming the following gating scheme:1 C0↔KdC1↔LO, where L is the equilibrium constant for the final closed-to-open transition.
# (§6) To perform thermodynamic cycle analysis, Kd values of four channel-ligand combinations (WT channel, menthol: Kd _1; Mutant channel, menthol: Kd _2; WT channel, menthol analog: Kd _3; Mutant channel, menthol analog: Kd _4) were determined separately. The strength of coupling was determined by the coupling energy (kT multiplied by LnΩ, where k is the Boltzmann constant and T is temperature in Kelvin). LnΩ was calculated by Eq. (2) as[51]2 LnΩ=LnKd_1⋅Kd_4/Kd_2⋅Kd_3.
# TRPM8 Y745F = biological target: T2, TRPM8 Y745F (Mus musculus, UniProt Q8R4D5, Y745F); experiment: as above
# T2 construct: expressed in transfected cells; host or cells: HEK293T
# T2 sequence (Q8R4D5 whole entry Y745F): as the sequence (Q8R4D5 whole entry L843A) above, with Y745F, A843L counted along it
# Method: as §1, §2, §3, §4, §5, §6
# TRPM8 F839A = biological target: T3, TRPM8 F839A (Mus musculus, UniProt Q8R4D5, F839A); experiment: as above
# T3 construct: expressed in transfected cells; host or cells: HEK293T
# T3 sequence (Q8R4D5 whole entry F839A): as the sequence (Q8R4D5 whole entry L843A) above, with F839A, A843L counted along it
# Method: as §1, §2, §3, §4, §5, §6
# TRPM8 L843V = biological target: T4, TRPM8 L843V (Mus musculus, UniProt Q8R4D5, L843V); experiment: as above
# T4 construct: expressed in transfected cells; host or cells: HEK293T
# T4 sequence (Q8R4D5 whole entry L843V): as the sequence (Q8R4D5 whole entry L843A) above, with A843V counted along it
# Method: as §1, §2, §3, §4, §5, §6
# TRPM8 V775A = biological target: T5, TRPM8 V775A (Mus musculus, UniProt Q8R4D5, V775A); experiment: as above
# T5 construct: expressed in transfected cells; host or cells: HEK293T
# T5 sequence (Q8R4D5 whole entry V775A): as the sequence (Q8R4D5 whole entry L843A) above, with V775A, A843L counted along it
# Method: as §1, §2, §3, §4, §5, §6
# TRPM8 I846V = biological target: T6, TRPM8 I846V (Mus musculus, UniProt Q8R4D5, I846V); experiment: as above
# T6 construct: expressed in transfected cells; host or cells: HEK293T
# T6 sequence (Q8R4D5 whole entry I846V): as the sequence (Q8R4D5 whole entry L843A) above, with A843L, I846V counted along it
# Method: as §1, §2, §3, §4, §5, §6
# TRPM8 L843I = biological target: T7, TRPM8 L843I (Mus musculus, UniProt Q8R4D5, L843I); experiment: as above
# T7 construct: expressed in transfected cells; host or cells: HEK293T
# T7 sequence (Q8R4D5 whole entry L843I): as the sequence (Q8R4D5 whole entry L843A) above, with A843I counted along it
# Method: as §1, §2, §3, §4, §5, §6
# wild-type TRPM8 = biological target: T8, wild-type TRPM8 (Mus musculus, UniProt Q8R4D5); experiment: whole-cell patch-clamp recording of ligand activation
# T8 construct: expressed in transfected cells; host or cells: HEK293T
# T8 sequence (Q8R4D5 whole entry): as the sequence (Q8R4D5 whole entry L843A) above, with A843L counted along it
# Method: Murine TRPM8 was used in this study. Point mutations were made by Fast Mutagenesis Kit V2 (SBS Genetech). Primers used to generate point mutations are summarized in Supplementary Table 2.
# Cells were transiently transfected with cDNA constructs by Lipofectamine 3000 (Life Technologies) following the manufacturer’s protocol. Patch-clamp recordings were performed 1–2 days after transfection.
# as §3, §4
# Data from whole-cell recordings were analyzed in Igor Pro version 6.1 (WaveMatrix). EC50 values were derived from fitting a Hill equation to the concentration–response relationship. […] To distinguish these possibilities, dissociation constant (Kd) for ligand binding was estimated assuming the following gating scheme:1 C0↔KdC1↔LO, where L is the equilibrium constant for the final closed-to-open transition.
# [1] = R(kcal/K/mol) 1.99E-03, T 2.97E+02, menthol vs labelled analog
# [2] = mutant cycle menthol vs labelled analog
compound,measurement,setting,value
C=C(C)[C@@H]1CC[C@@H](C)C[C@H]1O [isopulegol],Ratio X2 (Kd menthol / Kd labelled analog),TRPM8 L843A,34.2166
same,"Energy, Ave",TRPM8 L843A; [1],-2.14
same,Omega(X1/X2),TRPM8 L843A; menthol vs labelled analog,0.0264
same,Coupling Energy,TRPM8 L843A; [2],3.63 kT
same,Ratio X2 (Kd menthol / Kd labelled analog),TRPM8 Y745F,1.55E+00
same,"Energy, Ave",TRPM8 Y745F; [1],-0.32
same,Omega(X1/X2),TRPM8 Y745F; menthol vs labelled analog,0.58
same,Coupling Energy,TRPM8 Y745F; [2],0.54 kT
same,Ratio X2 (Kd menthol / Kd labelled analog),TRPM8 F839A,1.37
same,"Energy, Ave",TRPM8 F839A; [1],-0.25
same,Omega(X1/X2),TRPM8 F839A; menthol vs labelled analog,0.66
same,Coupling Energy,TRPM8 F839A; [2],0.42 kT
same,Ratio X2 (Kd menthol / Kd labelled analog),TRPM8 L843V,0.4038
same,"Energy, Ave",TRPM8 L843V; [1],0.48
same,Omega(X1/X2),TRPM8 L843V; menthol vs labelled analog,2.24
same,Coupling Energy,TRPM8 L843V; [2],0.81 kT
same,Ratio X2 (Kd menthol / Kd labelled analog),TRPM8 V775A,2.4876
same,"Energy, Ave",TRPM8 V775A; [1],-0.60
same,Omega(X1/X2),TRPM8 V775A; menthol vs labelled analog,0.36
same,Coupling Energy,TRPM8 V775A; [2],1.01 kT
same,"L (equilibrium constant between closed and open states upon ligand binding), Ave",TRPM8 I846V,41.287
same,Ratio X2 (Kd menthol / Kd labelled analog),TRPM8 I846V,0.02928
same,"concentration–response curve value, ave",TRPM8 I846V; 100 microM,0.5053
same,"concentration–response curve value, single recording",TRPM8 I846V; 100 microM,0.5194 and 0.5746 and 0.5283 and 0.3989
same,"concentration–response curve value, ave",TRPM8 I846V; 200 microM,0.8162
same,"concentration–response curve value, single recording",TRPM8 I846V; 200 microM,0.818 and 0.8632 and 0.783 and 0.8004
same,"concentration–response curve value, ave",TRPM8 I846V; 500 microM,0.9296
same,"concentration–response curve value, single recording",TRPM8 I846V; 500 microM,0.9586 and 0.8698 and 0.9387 and 0.9513
same,"concentration–response curve value, ave",TRPM8 I846V; 1000 microM,0.9432
same,"concentration–response curve value, single recording",TRPM8 I846V; 1000 microM,0.9846 and 0.8706 and 0.9587 and 0.9591
same,"concentration–response curve value, ave",TRPM8 I846V; 5000 microM,0.9595
same,"concentration–response curve value, single recording",TRPM8 I846V; 5000 microM,0.9671 and 0.952
same,"Energy, Ave",TRPM8 I846V; [1],2.02
same,Kd,"TRPM8 I846V; calculated from concentration–response curves, read-out: Kd, Ave",4090 µM
same,Omega(X1/X2),TRPM8 I846V; menthol vs labelled analog,30.85
same,Coupling Energy,TRPM8 I846V; [2],3.43 kT
same,Ratio X2 (Kd menthol / Kd labelled analog),TRPM8 L843I,0.229
same,"Energy, Ave",TRPM8 L843I; [1],0.81
same,Omega(X1/X2),TRPM8 L843I; menthol vs labelled analog,3.95
same,Coupling Energy,TRPM8 L843I; [2],1.37 kT
same,"L (equilibrium constant between closed and open states upon ligand binding), Ave",wild-type TRPM8; WT,2.233
same,Ratio X1 (Kd menthol / Kd labelled analog),wild-type TRPM8; WT,0.9034
same,"concentration–response curve value, ave","wild-type TRPM8; WT, 100 microM",0.06552
same,"concentration–response curve value, ave","wild-type TRPM8; WT, 200 microM",0.185
same,"concentration–response curve value, ave","wild-type TRPM8; WT, 500 microM",0.4757
same,"concentration–response curve value, single recording","wild-type TRPM8; WT, 500 microM",0.4347 and 0.5954 and 0.3968
same,"concentration–response curve value, ave","wild-type TRPM8; WT, 1000 microM",0.5625
same,"concentration–response curve value, single recording","wild-type TRPM8; WT, 1000 microM",0.5176 and 0.6462 and 0.5237
same,"concentration–response curve value, ave","wild-type TRPM8; WT, 5000 microM",0.6452
same,"concentration–response curve value, single recording","wild-type TRPM8; WT, 5000 microM",0.5498 and 0.7014 and 0.6843
same,"concentration–response curve value, ave","wild-type TRPM8; WT, 10000 microM",0.6337
same,"concentration–response curve value, single recording","wild-type TRPM8; WT, 10000 microM",0.5212 and 0.6983 and 0.6816
same,Kd,"wild-type TRPM8; WT, calculated from concentration–response curves (EC50 and Po max), read-out: Kd, Ave",1050 µM
same,Kd,"wild-type TRPM8; WT, read-out: Kd, single recording",1320 µM and 824 µM and 542 µM and 812 µM and 1460 µM and 617 µM and 1260 µM and 1590 µM
OC1CCCCC1 [cyclohexanol],activation of TRPM8 channel,wild-type TRPM8; up to 5 mM,failed to open; also recorded: cannot activate
